Reference: US8329950B2, “Process for preparation of trans 4-(3,4-Dichlorophenyl)-1,2,3,4-tetrahydro-1Napthalenamine” (Sunovion Pharmaceuticals Inc., priority 2005, dated 2012)
Values joined by “and” are separate entries in the source; they are usually repeats but may differ in a detail not shown here. Equal values may be shown once.

Key:
mice = assay: Behavioral Despair Test (Porsolt swim test) in mice; format: in vivo; details: for Immobility Duration, Mean: N = 10
[1] = target: T1, functional uptake of norepinephrine (NE) (Rattus norvegicus, UniProt Q63380); assay: biochemical
T1 construct: synaptosomes isolated at Cerep in a 0.32 M sucrose buffer from a male Wistar rat hypothalamus; tissue Cerep; host or cells: male Wistar rat hypothalamus synaptosomes
T1 sequence (Q63380 1-617): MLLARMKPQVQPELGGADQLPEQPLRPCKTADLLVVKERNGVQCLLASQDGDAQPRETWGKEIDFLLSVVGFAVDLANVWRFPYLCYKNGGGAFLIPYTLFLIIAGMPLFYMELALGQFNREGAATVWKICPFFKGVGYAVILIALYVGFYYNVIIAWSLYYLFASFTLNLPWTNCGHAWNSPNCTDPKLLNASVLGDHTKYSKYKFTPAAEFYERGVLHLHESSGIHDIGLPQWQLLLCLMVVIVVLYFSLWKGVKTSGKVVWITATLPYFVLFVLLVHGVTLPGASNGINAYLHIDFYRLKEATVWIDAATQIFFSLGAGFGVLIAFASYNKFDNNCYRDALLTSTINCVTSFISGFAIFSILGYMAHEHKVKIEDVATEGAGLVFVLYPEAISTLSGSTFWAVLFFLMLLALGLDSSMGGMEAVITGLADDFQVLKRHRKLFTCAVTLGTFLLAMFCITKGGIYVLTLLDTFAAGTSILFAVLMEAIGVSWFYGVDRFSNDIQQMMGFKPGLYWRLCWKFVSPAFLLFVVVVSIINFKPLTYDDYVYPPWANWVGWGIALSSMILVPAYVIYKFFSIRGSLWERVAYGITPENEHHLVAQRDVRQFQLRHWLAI
Description: Characterization of norepinephrine uptake is performed using synaptosomes isolated at Cerep in a 0.32 M sucrose buffer from a male Wistar rat hypothalamus. The uptake of radiolabeled norepinephrine by synaptosomes (100 μg of proteins/point) is allowed by incubating them in a deep well for 20 minutes at 37° C. in presence of test compounds and [^3H]-norepinephrine (0.1 μCi/point).
Synaptosomes and [^3H]-norepinephrine are prepared in a Krebs buffer pH 7.4 containing 25 mM NaHCO3, 11 mM glucose and 50 μM ascorbic acid. This incubation buffer is oxygenated during 5 minutes before incubation. Basal control is incubated for 20 minutes at 4° C. in order to avoid any uptake. Following this incubation the uptake is stopped by filtration through an “unifilter 96-wells GFB “Packard plate washed with Krebs buffer containing 25 mM NaHCO3 in order to eliminate the free [^3H]-norepinephrine. The radioactivity associated to the synaptosomes retained onto the unifilter corresponding to the uptake is then measured with a microplate scintillation counter Topcount, Packard using a scintillation liquid microscint 0, Packard.

[2] = target: T2, functional uptake of dopamine (DA) (Rattus norvegicus, UniProt P23977); assay: Dopamine functional uptake assay in rat striatum synaptosomes; format: biochemical; details: for inhibition of DA uptake: tested initially at 10 μM
T2 construct: synaptosomes isolated at Cerep in a 0.32 M sucrose buffer from a male Wistar rat striatum; tissue Cerep; host or cells: male Wistar rat striatum synaptosomes
T2 sequence (P23977 whole entry): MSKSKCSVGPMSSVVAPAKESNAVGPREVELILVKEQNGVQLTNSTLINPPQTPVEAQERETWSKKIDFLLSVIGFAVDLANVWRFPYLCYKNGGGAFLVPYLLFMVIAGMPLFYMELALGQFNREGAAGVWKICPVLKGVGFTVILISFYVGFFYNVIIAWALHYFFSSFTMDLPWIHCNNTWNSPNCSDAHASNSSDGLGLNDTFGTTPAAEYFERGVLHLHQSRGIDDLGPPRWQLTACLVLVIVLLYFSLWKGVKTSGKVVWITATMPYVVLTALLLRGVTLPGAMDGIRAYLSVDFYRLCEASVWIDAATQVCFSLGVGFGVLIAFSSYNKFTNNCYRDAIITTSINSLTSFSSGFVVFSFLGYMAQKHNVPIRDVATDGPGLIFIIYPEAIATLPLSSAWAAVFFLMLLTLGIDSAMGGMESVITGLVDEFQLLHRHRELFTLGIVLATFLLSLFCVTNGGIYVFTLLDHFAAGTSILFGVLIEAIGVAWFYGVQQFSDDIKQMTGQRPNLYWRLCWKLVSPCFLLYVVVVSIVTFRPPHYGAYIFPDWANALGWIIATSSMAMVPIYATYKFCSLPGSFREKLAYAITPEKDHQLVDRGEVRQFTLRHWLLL
Description: Characterization of dopamine uptake is performed using synaptosomes isolated at Cerep in a 0.32 M sucrose buffer from a male Wistar rat striatum. The uptake of radiolabelled dopamine by synaptosomes (20 μg of proteins/point) is allowed by incubating them in a deep well for 15 minutes at 37° C. in presence of test compounds and [^3H]-dopamine (0.1 μCi/point).
Synaptosomes and [^3H]-dopamine are prepared in a Krebs buffer pH 7.4 containing 25 mM NaHCO3, 11 mM glucose and 50 μM ascorbic acid. This incubation buffer is oxygenated during 5 minutes before incubation. Basal control is incubated for 15 minutes at 4° C. in order to avoid any uptake. Following this incubation the uptake is stopped by filtration through an “unifilter 96-wells GFB “Packard plate washed with Krebs buffer containing 25 mM NaHCO3 in order to eliminate the free [^3H]-dopamine. The radioactivity associated to the synaptosomes retained onto the unifilter corresponding to the uptake is then measured with a microplate scintillation counter Topcount, Packard using a scintillation liquid microscint 0, Packard.

[3] = target: T3, functional uptake of serotonin (5-HT) (Rattus norvegicus, UniProt P31652); assay: Serotonin functional uptake assay in rat synaptosomes; format: biochemical; details: Table 6; tested initially at 10 μM
T3 construct: synaptosomes isolated in a 0.32 M sucrose buffer from a male Wistar rat cortex; from tissue; host or cells: male Wistar rat cortex (whole brain) synaptosomes
T3 sequence (P31652 whole entry): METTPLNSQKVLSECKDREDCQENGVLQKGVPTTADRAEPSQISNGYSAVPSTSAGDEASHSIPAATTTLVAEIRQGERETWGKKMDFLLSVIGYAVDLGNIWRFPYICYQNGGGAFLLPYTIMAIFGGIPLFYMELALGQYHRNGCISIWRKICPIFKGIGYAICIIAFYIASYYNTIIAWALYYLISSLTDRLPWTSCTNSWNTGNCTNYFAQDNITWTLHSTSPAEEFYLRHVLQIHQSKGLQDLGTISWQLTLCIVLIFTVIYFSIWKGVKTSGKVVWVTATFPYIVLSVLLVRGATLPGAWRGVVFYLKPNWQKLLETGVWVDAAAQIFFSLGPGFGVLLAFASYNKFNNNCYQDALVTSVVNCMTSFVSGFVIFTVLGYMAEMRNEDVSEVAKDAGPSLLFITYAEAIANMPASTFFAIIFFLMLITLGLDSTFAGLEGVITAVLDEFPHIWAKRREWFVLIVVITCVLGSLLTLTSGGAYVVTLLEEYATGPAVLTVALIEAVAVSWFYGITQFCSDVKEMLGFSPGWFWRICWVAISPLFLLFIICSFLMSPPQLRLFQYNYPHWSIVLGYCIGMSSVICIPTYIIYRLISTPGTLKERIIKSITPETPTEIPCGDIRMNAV
Description: Characterization of serotonin uptake is performed using synaptosomes isolated in a 0.32 M sucrose buffer from a male Wistar rat cortex. The uptake of radiolabelled serotonin by synaptosomes (100 μg of proteins/point) is allowed by incubating them in a deep well for 15 minutes at 37° C. in presence of test compounds and [3H]5-hydroxytryptamin (0.1 μCi/point).
Synaptosomes and [^3H]5-hydroxytryptamine are prepared in a Krebs buffer pH 7.4 containing 25 mM NaHCO3, 11 mM glucose and 50 μM ascorbic acid. This incubation buffer is oxygenated during 5 minutes before incubation. Basal control is incubated for 15 minutes at 4° C. in order to avoid any uptake. Following this incubation the uptake is stopped by filtration through an “unifilter 96-wells GFB “Packard plate washed with Krebs buffer containing 25 mM NaHCO3 in order to eliminate the free [^3H]5-hydroxytryptamine. The radioactivity associated to the synaptosomes retained onto the unifilter corresponding to the uptake is then measured with a microplate scintillation counter Topcount, Packard using a scintillation liquid microscint 0, Packard.

SMILES: CN(C)CCCN1c2ccccc2CCc2ccccc21 [imipramine]
- Immobility Duration, individual mice (mice; 10 mg/kg): 89 s and 85 s and 73 s and 37 s and 74 s and 95 s and 5 s and 33 s
- Immobility Duration, Mean (mice; 10 mg/kg): 58 s
- inhibition at 10 µM ([1]; read-out: inhibition of NE uptake): < 50%
- inhibition of DA uptake ([2]; Table 6): — (— <50% inhibition)
- inhibition at 10 µM ([2]; read-out: inhibition of DA uptake): < 50%

SMILES: N[C@@H]1CC[C@@H](c2ccc(Cl)c(Cl)c2)c2ccccc21 [P, (1R,4S)-trans 4-(3,4-dichlorophenyl)-1,2,3,4-tetrahydro-1-napthalenamine]
- Immobility Duration, individual mice (mice; 0.03 mg/kg intraperitoneal): 129 s and 99 s and 107 s and 159 s and 102 s and 115 s and 122 s and 128 s and 120 s and 96 s
- Immobility Duration, Mean (mice; 0.03 mg/kg intraperitoneal): 118 s
- Immobility Duration, individual mice (mice; 0.1 mg/kg intraperitoneal): 100 s and 103 s and 76 s and 109 s and 56 s and 98 s and 62 s and 119 s and 96 s and 85 s
- Immobility Duration, Mean (mice; 0.1 mg/kg intraperitoneal): 90 s
- Immobility Duration, individual mice (mice; 0.3 mg/kg intraperitoneal): 93 s and 23 s and 102 s and 110 s and 106 s and 98 s and 120 s and 114 s and 109 s and 115 s
- Immobility Duration, Mean (mice; 0.3 mg/kg intraperitoneal): 99 s
- Immobility Duration, individual mice (mice; 1 mg/kg intraperitoneal): 34 sec and 51 sec (2×) and 35 sec and 19 sec and 81 sec and 50 sec and 29 sec and 66 sec and 87 sec
- Immobility Duration, Mean (mice; 1 mg/kg intraperitoneal): 50 s
- Immobility Duration, individual mice (mice; 3 mg/kg intraperitoneal): 3 sec and 17 sec and 5 sec and 0 sec (3×) and 40 sec and 26 sec and 12 sec and 49 sec
- Immobility Duration, Mean (mice; 3 mg/kg intraperitoneal): 15 s

SMILES: CNCCCC1c2ccccc2C=Cc2ccccc21 [protriptyline]
- inhibition of DA uptake ([2]; Table 6): — (— <50% inhibition)

SMILES: Fc1ccc(C(OCCN2CCN(CCCc3ccccc3)CC2)c2ccc(F)cc2)cc1 [GBR 12909]
- inhibition of 5-HT uptake [3]: — (— <50% inhibition)
- inhibition of NE uptake ([1]; Table 6, tested initially at 10 μM): — (— <50% inhibition)

SMILES: N[C@@H]1CC[C@@H](c2ccc(Cl)c(Cl)c2)c2ccccc21 (relative stereo) [P + Q, trans 4-(3,4-dichlorophenyl)-1,2,3,4-tetrahydro-1-napthalenamine]
- IC50 ([1]; Table 6, rat synaptosomes): 8.8 nM
- IC50 ([2]; Table 6, rat synaptosomes): 7.1 nM
